In patent US7531541B2, “Partial mGluR5 antagonists for treatment of anxiety and CNS disorders” (Vanderbilt University, priority 2005, dated 2009):
Values joined by “and” are separate entries in the source; they are usually repeats but may differ in a detail not shown here. Identical values can stand only once.

Experiments:
[1] = target: T1, rat mGluR5 (allosteric MPEP site) (Rattus norvegicus, UniProt P31424); assay: [3H]methoxyPEPy radioligand binding assay, membranes of HEK293A cells stably expressing rat mGluR5; settings: for Ki: 2 nM [3H]methoxyPEPy, 60 min room temperature, rat mGluR5 HEK293A membranes, read-out: Ki, displacement of [3H]methoxyPEPy binding; for inhibition of binding of [3H]methoxyPEPy to mGluR5 membranes: extent of displacement, in words
T1 construct: expressed in transfected cells
Procedure: FIG. 3. […] Samples were filtered through glass fiber filters and washed extensively. […] Concentration response curves were generated from the means of three separate experiments. Error bars represent SEM.
Membranes were prepared from HEK293A cells stably expressing rat mGluR5. Compounds were diluted into assay buffer (50 mM Tris/0.9% NaCl, pH 7.4) to a 5× stock and 20 μL test compound added to each well of a 96 well assay plate. 60 μL aliquots of membranes diluted in assay buffer (10 μg/well) were added to each well. 20 μL [3H]methoxyPEPy (2 nM final concentration in assay buffer) was added and the reaction incubated at room temperature for 60 min with shaking. After the incubation period, the membrane-bound ligand was separated from free ligand by filtration through glass-fiber 96 well filter plates (Unifilter-96, GF/B by Perkin Elmer). The contents of each well was transferred simultaneously to the filter plate and washed 4 times with assay buffer (Brandel Cell Harvester). 30 μL scintillation fluid was added to each well and the membrane-bound radioactivity determined by scintillation counting (TopCount by Perkin-Elmer).

mGluR5 [2] = target: T2, mGluR5 (Rattus norvegicus, UniProt P31424); assay: Calcium fluorescence assay (FDSS) in rat cortical astrocytes; assay type: cell-based; settings: for effect on glutamate concentration response curve: 10 μM (maximally effective) compound, range of glutamate concentrations; for effect on glutamate-induced calcium response: 10 μM compound, 5 min; for effect on glutamate-induced calcium response / maximal reduction of the response to glutamate / antagonist activity across a range of concentrations / IC50: nearly maximal glutamate; for maximal inhibition relative to that of MPEP: % of maximal inhibition by MPEP; for block of MPEP-induced inhibition of the glutamate response: compound added 1 min before; for rightward shift of concentration response curve compared to MPEP: antagonism of mGluR5-mediated calcium increase; for activation of mGluR5 when added alone: compound alone; for maximal reduction of the response to glutamate: concentration response; for IC50: read-out: IC50 at inhibiting mGluR5 receptor responses; for potentiation of response to suboptimal glutamate: DFB 30 μM, CDPPB 3 μM
T2 construct: they provide a native system that endogenously expresses high levels of mGluR5; endogenous in cells; host or cells: primary (secondary-culture) rat cortical astrocytes from Sprague Dawley pups
Procedure: Metabotropic glutamate receptor 5induced phosphorylation of extracellular signal-regulated kinase in astrocytes depends on transactivation of the epidermal growth factor receptor. J Neurosci 21:9619-28). In brief, neocortices from 2-4 day old Sprague Dawley rat pups were dissected and dissociated in DMEM by trituration with 1 ml pipette tips. The cells were then centrifuged and resuspended in DMEM (containing 1 mM sodium pyruvate, 2 mM L-glutamine, PenStrep) supplemented with 10% FBS in T75 tissue culture flasks; the medium was changed the next day. Cell cultures were maintained at 37° C. in an atmosphere of 95% air/5% CO2 for 6-8 days. Cells were shaken overnight (280-310 rpm) to remove oligodendrocytes and microglia.
Secondary astrocytes were trypsinzed and replated into poly-D-Lysine coated 384 well plates (Greiner) at 10K cells/well in 20 μL growth medium (DMEM containing 10% FBS, 20 mM HEPES, 2 mM L-glutamine and antibiotic/antimycotic). The second day the medium was changed to growth medium and G-5 supplement (Invitrogen) containing EGF (10 ng/ml), basic fibroblast growth factor (5 ng/ml), insulin (5 μg/ml), and other factors. The cells were nearly confluent within 2 days and resembled the polygonal astrocytic appearance in vivo. The fourth day, approximately 20 hours before experiments, the medium was changed to glutamine free DMEM containing 5% dialyzed FBS, 20 mM HEPES and antibiotic/antimycotic. On day five medium was removed from the plate and the cells incubated with 20 μL of 1 μM Fluo-4AM (Molecular Probes) in assay buffer (Hank's balanced salt solution, 20 mM HEPES and 2.5 mM Probenecid) for 1 h at 37° C. Dye was removed and 20 μL assay buffer was added. Ca2+ flux was measured using the Functional Drug Screening System (FDSS6000 by Hamamatsu).
Compounds were diluted into assay buffer to a 5× stock which was applied to the cells. For neutral measurements, cells were preincubated with the test compounds for 1 min, potentiator or antagonist was added, and the cells incubated for an additional 5 min. Cells were then stimulated for 2 min with an appropriate concentration of glutamate. For potentiator and antagonist measurements, cells were preincubated with the test compounds for 5 min and then stimulated for 2 min with an appropriate concentration of glutamate. Data were collected at ¼ Hz during the preincubation period and at 1 Hz during the glutamate addition phase of the experiment.
Raw data were normalized in a three step process: (1) Cell number and non-uniform illumination/imaging were controlled for based on the initial readings for the well, (2) the signal amplitude for the data point immediately preceding the agonist addition was subtracted from each point on the trace, (3) data were normalized to the maximal response for each experiment. Concentration response curves were generated using Prism 4.0 (GraphPad).

[3] = tested on: mGluR5 receptor responses in STN neurons; assay: Whole-cell electrophysiology in STN neurons of rat midbrain slices (DHPG-induced depolarization); assay type: cell-based
mGluR5 [4] = target: T3, mGluR5 (Homo sapiens, UniProt P41594); settings: recombinant CHO cells, Published US Application 2001/0056084; cited from earlier work
T3 construct: host or cells: CHO cells transfected with mGluR5 (earlier work)

[5] = 5MPEP 3, 10, 30 μM on MPEP concentration response

T1 sequence (P31424 21-1203): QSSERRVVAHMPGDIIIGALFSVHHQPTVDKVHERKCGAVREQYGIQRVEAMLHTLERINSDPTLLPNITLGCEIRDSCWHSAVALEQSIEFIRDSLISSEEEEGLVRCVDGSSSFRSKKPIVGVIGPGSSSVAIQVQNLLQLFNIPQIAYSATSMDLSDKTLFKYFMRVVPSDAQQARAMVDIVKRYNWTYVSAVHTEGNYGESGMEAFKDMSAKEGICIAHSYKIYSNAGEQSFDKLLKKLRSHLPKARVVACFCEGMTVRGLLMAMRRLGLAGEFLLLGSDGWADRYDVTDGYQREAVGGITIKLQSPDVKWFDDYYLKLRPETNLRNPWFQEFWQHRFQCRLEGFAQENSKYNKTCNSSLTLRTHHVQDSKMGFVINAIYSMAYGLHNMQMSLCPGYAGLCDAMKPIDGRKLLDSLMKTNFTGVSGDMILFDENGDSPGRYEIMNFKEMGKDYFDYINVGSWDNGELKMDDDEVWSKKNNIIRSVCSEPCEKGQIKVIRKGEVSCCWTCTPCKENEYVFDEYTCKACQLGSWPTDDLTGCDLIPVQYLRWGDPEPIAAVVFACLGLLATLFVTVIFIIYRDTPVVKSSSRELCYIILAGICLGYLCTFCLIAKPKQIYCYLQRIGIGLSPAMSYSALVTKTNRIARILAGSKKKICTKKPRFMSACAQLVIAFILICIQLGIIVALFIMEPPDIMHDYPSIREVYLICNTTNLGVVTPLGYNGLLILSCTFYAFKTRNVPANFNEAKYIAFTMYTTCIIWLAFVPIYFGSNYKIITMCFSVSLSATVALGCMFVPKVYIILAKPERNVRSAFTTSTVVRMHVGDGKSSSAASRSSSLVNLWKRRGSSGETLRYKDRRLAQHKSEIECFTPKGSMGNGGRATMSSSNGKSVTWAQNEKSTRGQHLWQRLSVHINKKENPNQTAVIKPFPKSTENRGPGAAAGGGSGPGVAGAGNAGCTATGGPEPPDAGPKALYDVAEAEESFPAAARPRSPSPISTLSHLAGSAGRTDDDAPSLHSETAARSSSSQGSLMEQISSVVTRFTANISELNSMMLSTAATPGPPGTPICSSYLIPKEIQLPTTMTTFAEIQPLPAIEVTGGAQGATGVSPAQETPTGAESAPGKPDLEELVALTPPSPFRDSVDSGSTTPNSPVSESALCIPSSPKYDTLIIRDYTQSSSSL
T2 sequence (P31424 21-1203): as above
T3 sequence (P41594 21-1212): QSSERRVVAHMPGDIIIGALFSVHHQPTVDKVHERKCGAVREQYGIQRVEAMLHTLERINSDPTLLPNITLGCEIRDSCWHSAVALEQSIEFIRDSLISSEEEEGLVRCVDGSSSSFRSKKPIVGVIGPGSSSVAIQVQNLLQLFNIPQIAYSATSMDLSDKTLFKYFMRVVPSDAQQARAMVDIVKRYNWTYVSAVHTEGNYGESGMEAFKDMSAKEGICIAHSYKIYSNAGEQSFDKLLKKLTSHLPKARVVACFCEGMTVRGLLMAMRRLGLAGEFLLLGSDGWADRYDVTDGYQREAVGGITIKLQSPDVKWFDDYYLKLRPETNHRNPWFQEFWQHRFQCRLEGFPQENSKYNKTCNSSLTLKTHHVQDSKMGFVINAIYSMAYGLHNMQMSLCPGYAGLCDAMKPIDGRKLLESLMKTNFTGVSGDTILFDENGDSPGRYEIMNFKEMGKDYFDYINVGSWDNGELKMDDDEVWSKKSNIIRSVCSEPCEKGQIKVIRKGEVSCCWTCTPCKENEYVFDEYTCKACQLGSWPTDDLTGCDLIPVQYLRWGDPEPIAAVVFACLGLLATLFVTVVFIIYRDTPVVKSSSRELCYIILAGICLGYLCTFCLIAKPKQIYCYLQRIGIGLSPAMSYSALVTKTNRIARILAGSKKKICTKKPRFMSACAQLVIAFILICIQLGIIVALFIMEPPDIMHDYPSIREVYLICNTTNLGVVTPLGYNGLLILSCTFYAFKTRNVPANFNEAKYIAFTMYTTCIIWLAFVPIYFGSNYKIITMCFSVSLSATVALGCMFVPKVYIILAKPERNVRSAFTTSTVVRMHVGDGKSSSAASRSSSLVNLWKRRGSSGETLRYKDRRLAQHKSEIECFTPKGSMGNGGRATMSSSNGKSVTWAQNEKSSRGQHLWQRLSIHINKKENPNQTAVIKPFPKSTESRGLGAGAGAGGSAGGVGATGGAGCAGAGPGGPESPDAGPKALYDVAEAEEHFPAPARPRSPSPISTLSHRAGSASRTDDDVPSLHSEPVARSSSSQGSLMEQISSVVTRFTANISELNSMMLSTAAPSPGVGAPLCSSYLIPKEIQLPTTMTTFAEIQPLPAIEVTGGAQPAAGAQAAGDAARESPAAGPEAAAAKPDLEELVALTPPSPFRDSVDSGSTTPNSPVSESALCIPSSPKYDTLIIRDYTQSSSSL

In the case of “3-(6-Methylpyridin-2-ylethynyl)-5-bromopyridine [Br-5MPEPy]”, the Ki [1] is reported as 0.182 ± 0.05 µM, the “inhibition of binding of [3H]methoxyPEPy to mGluR5 membranes” value [1] is reported as “fully inhibited” and the “effect on glutamate concentration response curve” value (mGluR5 [2]) is reported as “rightward and partial downward shift”. The “effect on glutamate-induced calcium response” value (mGluR5 [2]) was “partially inhibited”, the “maximal inhibition relative to that of MPEP” value (mGluR5 [2]) was “approximately 50%” and the “block of MPEP-induced inhibition of the glutamate response” value (mGluR5 [2]; MPEP 50 nM) was “only partially blocked”. For the same molecule, the “rightward shift of concentration response curve compared to MPEP” value (mGluR5 [2]) was “approximately 10 fold”, the “activation of mGluR5 when added alone” value (mGluR5 [2]) was “do not partially activate” and the “maximal reduction of the response to glutamate” value (mGluR5 [2]) was “approximately 50%”. The “antagonist activity across a range of concentrations” value (mGluR5 [2]) was “partial antagonist activity” and the IC50 (mGluR5 [2]) was about 0.3 µM.

In the case of Cc1ccc(C#Cc2ccccc2)nc1 [5MPEP, 5-methyl-2-phenylethynyl-pyridine, reference compound], the “effect on glutamate-induced calcium response” value (mGluR5 [2]) is reported as “no inhibitory effect”, the “effect on mGluR5 response to glutamate alone” value (mGluR5 [2]; 5MPEP 30 μM, suboptimal glutamate) is reported as “does not alter” and the “block of allosteric potentiator responses to DFB and CDPPB” value (mGluR5 [2]; 5MPEP 30 μM, DFB 30 μM or CDPPB 3 μM, suboptimal glutamate) is reported as “completely blocks”. For the same molecule, the “Schild regression slope, 5MPEP versus MPEP” value (mGluR5 [2]; [5]) was 1.076±0.0094 and 1.076±0.01, the Schild x-intercept (mGluR5 [2]; [5]) was −6.249 and the “block of MPEP-induced inhibition of the glutamate response” value (mGluR5 [2]; MPEP 50 nM) was “fully blocked”. The Ki (mGluR5 [2]; extrapolated from Schild regression, read-out: Ki from Schild analysis (x-intercept)) was 0.56 µM, the “DHPG-induced depolarization in presence of CDPPB and 5MPEP” value [3] was 7.05±0.82 mV and the “DHPG-induced depolarization in presence of MPEP and 5MPEP” value [3] was 14.28±2.1 mV. For the same molecule, the “effect on membrane potential of STN neurons” value [3] was “no effect” and the “inhibition of mGluR5 receptor responses” value (mGluR5 [4]) was “completely inactive”.

In the case of N#Cc1cccc(C(=O)Nc2cc(-c3ccccc3)nn2-c2ccccc2)c1 [CDPPB, 3-cyano-N-(I,3-diphenyl-1 H-pyrazol-5-yl)benzamide, reference compound], the “potentiation of response to suboptimal glutamate” value (mGluR5 [2]) is reported as “potentiated” and the “DHPG-induced depolarization in presence of CDPPB” value ([3]; DHPG 10 μM + CDPPB 10 μM) is reported as 13.39±1.66 mV.

In the case of Fc1cccc(C=NN=Cc2cccc(F)c2)c1 [DFB, 3,3′-di fluorobenzaldazine, reference compound], the “potentiation of response to suboptimal glutamate” value (mGluR5 [2]) is reported as “potentiated”.

In the case of N[C@H](C(=O)O)c1cc(O)cc(O)c1 [DHPG], the “depolarization of STN neurons” value ([3]; DHPG 10 μM alone (submaximal)) is reported as 6.89 ± 1.22 mV and the “depolarization of STN neurons” value ([3]; DHPG 100 μM alone, TTX 500 nM) is reported as 14.82 ± 2.21 mV.

With COc1cccc(C#Cc2ccc(C)cn2)c1 [M-5MPEP, 2-(3-Methoxyphenylethynyl)-5-methylpyridine] the Ki [1] was 0.145 µM, the “inhibition of binding of [3H]methoxyPEPy to mGluR5 membranes” value [1] was “fully inhibited” and the “effect on glutamate concentration response curve” value (mGluR5 [2]) was “rightward and partial downward shift”. The “effect on glutamate-induced calcium response” value (mGluR5 [2]) was “partially inhibited”, the “maximal inhibition relative to that of MPEP” value (mGluR5 [2]) was “approximately 50%” and the “block of MPEP-induced inhibition of the glutamate response” value (mGluR5 [2]; MPEP 50 nM) was “only partially blocked”. The “rightward shift of concentration response curve compared to MPEP” value (mGluR5 [2]) was “approximately 10 fold”, the “activation of mGluR5 when added alone” value (mGluR5 [2]) was “do not partially activate” and the “maximal reduction of the response to glutamate” value (mGluR5 [2]) was “approximately 50%”. The “antagonist activity across a range of concentrations” value (mGluR5 [2]) was “partial antagonist activity” and the IC50 (mGluR5 [2]) was about 0.3 µM.

With Cc1cccc(C#Cc2ccccc2)n1 [MPEP, 2-methyl-6-(phenylethynyl)-pyridine, reference compound] the “effect on glutamate-induced calcium response” value (mGluR5 [2]) was “fully blocked”, the “inhibition of calcium response to nearly maximal glutamate” value (mGluR5 [2]; MPEP 50 nM) was “robust inhibition” and the “DHPG-induced depolarization in presence of MPEP” value ([3]; DHPG 100 μM + MPEP 10 μM) was 6.15+0.82 mV.

In the case of Brc1ccc(C#Cc2ccccc2)nc1.Cl [YP260], the “partial antagonist activity (FIG. 11)” value (mGluR5 [2]; similarly to the figures above) is reported as “partial activities”.
